Experimental findings from US10160762B2, “6-alkyl dihydropyrazolopyrimidinone compounds as PDE2 inhibitors” (Merck Sharp & Dohme Corp., priority 2015, dated 2018) are described below.

The assay has as its target T1, human PDE2A1 (Homo sapiens, UniProt O00408).
T1 construct: GST; purchased BPS Bioscience (San Diego, Calif.) 60020; host or cells: insect cells
Nature of the assay: IMAP FP PDE assay, human PDE2A1. Type of assay: biochemical. In outline: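 GST-tagged human PDE2A1 from insect cells; substrate 50 nM FAM-cAMP containing 1000 nM cGMP in Tris pH 7.2/MgCl2/DTT buffer, enzyme giving 20% conversion. 60 min at room temperature, IMAP binding reagent, fluorescence polarization read. Apparent Ki from FP readings using apparent KM 10,000 nM; ten-point 3-fold titrations.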

Where [1] appears, read: Lab B, read-out: Human PDE2 Ki (nM) Lab B.
Where [2] appears, read: Lab A, read-out: Human PDE2 Ki (nM) Lab A.

Where two headings read alike, the source gives them in different places. Some results are limits rather than exact numbers.

In general, Ki refers to the dissociation constant of the complex between target and ligand, obtained from inhibition or displacement.

T1 sequence (O00408 1-920 isoform O00408-2): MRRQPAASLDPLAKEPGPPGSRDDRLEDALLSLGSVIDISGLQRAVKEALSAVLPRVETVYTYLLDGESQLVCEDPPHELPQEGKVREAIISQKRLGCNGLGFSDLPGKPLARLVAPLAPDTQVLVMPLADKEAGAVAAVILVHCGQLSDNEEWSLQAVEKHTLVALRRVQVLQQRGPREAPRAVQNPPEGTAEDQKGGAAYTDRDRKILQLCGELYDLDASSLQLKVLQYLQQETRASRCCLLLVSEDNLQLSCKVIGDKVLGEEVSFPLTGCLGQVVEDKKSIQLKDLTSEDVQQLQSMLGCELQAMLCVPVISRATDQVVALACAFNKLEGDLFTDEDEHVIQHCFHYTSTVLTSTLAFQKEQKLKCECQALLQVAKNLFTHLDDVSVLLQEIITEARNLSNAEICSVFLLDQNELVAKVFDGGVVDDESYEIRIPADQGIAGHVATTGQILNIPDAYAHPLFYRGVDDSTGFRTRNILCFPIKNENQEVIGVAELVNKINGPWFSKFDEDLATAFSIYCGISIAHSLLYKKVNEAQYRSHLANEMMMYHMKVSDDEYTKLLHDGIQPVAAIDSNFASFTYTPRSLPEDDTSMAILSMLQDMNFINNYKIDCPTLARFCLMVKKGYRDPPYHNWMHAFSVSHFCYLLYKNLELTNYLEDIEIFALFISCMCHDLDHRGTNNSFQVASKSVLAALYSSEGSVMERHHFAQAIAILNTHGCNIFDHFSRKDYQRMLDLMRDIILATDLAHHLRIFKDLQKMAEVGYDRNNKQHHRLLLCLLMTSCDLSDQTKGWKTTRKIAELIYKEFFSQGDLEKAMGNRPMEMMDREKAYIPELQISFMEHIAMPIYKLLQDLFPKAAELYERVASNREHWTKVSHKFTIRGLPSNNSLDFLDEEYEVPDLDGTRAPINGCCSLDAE

On to `Cc1nc2c(c(C(F)F)nn2C(c2ccc(OC(F)(F)F)c(F)c2)C2CC2)c(=O)[nH]1` (centres unmarked) [Example 193, 1-(Cyclopropyl(3-fluoro-4-(trifluoromethoxy)phenyl)methyl)-3-(difluoromethyl)-6-methyl-1H-pyrazolo[3,4-d]pyrimidin-4(5H)-one], for which the inhibition constant Ki under setting [1] was 1.8 nM.

For `Cc1nc2c(c(CO)nn2C(C)c2ccc(C(F)(F)F)cc2)c(=O)[nH]1` (centres unmarked) [Example 7, 3-(Hydroxymethyl)-6-methyl-1-(1-(4-(trifluoromethyl)phenyl)ethyl)-1H-pyrazolo[3,4-d]pyrimidin-4(5H)-one], the inhibition constant Ki by setting is: under setting [2], 11 nM; under setting [1], 17 nM.

With `Cc1nc2c(c(CF)nn2C(C)c2ccc(C(F)(F)F)c(F)c2)c(=O)[nH]1` (centres unmarked) [Example 230, 1-(1-(3-Fluoro-4-(trifluoromethyl)phenyl)ethyl)-3-(fluoromethyl)-6-methyl-1H-pyrazolo[3,4-d]pyrimidin-4(5H)-one], the Ki under setting [2] was found to be 1.5 nM and the Ki under setting [1] amounted to 3.6 nM.

For `Cc1nc2c(c(CO)nn2C(C)(C)c2ccc(C(F)(F)F)cc2)c(=O)[nH]1` [Example 9, 3-(Hydroxymethyl)-6-methyl-1-{1-methyl-1-[4-(trifluoromethyl)phenyl]ethyl}-1,5-dihydro-4H-pyrazolo[3,4-d]pyrimidin-4-one], the inhibitory constant (Ki) under setting [2] turned out to be 27 nM and the inhibition constant (Ki) under setting [1] is 60 nM.

`Cc1nc2c(c(CO)nn2[C@@H](C)c2ccc(OC(F)(F)F)cc2)c(=O)[nH]1` [Example 158, (S)-3-(Hydroxymethyl)-6-methyl-1-(1-(4-(trifluoromethoxy)phenyl)ethyl)-1H-pyrazolo[3,4-d]pyrimidin-4(5H)-one]: the Ki under setting [1] is 3.1 nM.

For the compound `COCc1nc2c(c(C)nn2C(C)c2ccc(C(F)(F)F)cc2)c(=O)[nH]1` (centres unmarked) [Example 48, 6-(Methoxymethyl)-3-methyl-1-{1-[4-(trifluoromethyl)phenyl]ethyl}-1,5-dihydro-4H-pyrazolo[3,4-d]pyrimidin-4-one], the inhibition constant Ki under setting [2] turned out to be 21 nM.

Regarding `Cc1nc2c(c(CF)nn2C(C)c2ccc(OC(F)(F)F)cc2)c(=O)[nH]1` (single isomer, unassigned) [Example 206, (R)- or (S)-3-(Fluoromethyl)-6-methyl-1-(1-(4-(trifluoro-methoxy-)phenyl)ethyl)-1H-pyrazolo[3,4-d]pyrimidin-4(5H)-one], the inhibition constant (Ki) under setting [1] was 83 nM.

For the compound `Cc1nc2c(c(CO)nn2C(C)c2ccc(OC(F)(F)F)c(F)c2)c(=O)[nH]1` (single isomer, unassigned) [Example 11, (S)- or (R)-1-(1-(3-Fluoro-4-(trifluoromethoxy)phenyl)ethyl)-3-(hydroxymethyl)-6-methyl-1H-pyrazolo[3,4-d]pyrimidin-4(5H)-one], the Ki under setting [1] was 1.9 nM.

Consider `Cc1nc2c(c(CO)nn2C(C)c2ccc(C(F)(F)F)c(F)c2)c(=O)[nH]1` (single isomer, unassigned) [Example 13, (S)- or (R)-1-(1-(3-Fluoro-4-(trifluoromethyl)phenyl)ethyl)-3-(hydroxymethyl)-6-methyl-1H-pyrazolo[3,4-d]pyrimidin-4(5H)-one], for which the inhibition constant Ki under setting [1] turned out to be 1.7 nM.

For the compound `Cc1nc2c(c(C(O)C(F)(F)F)nn2C(C)c2ccc(C(F)(F)F)cc2)c(=O)[nH]1` (centres unmarked) [Example 327, 6-Methyl-3-(2,2,2-trifluoro-1-hydroxyethyl)-1-{1-[4-(trifluoromethyl)phenyl]ethyl}-1,5-dihydro-4H-pyrazolo[3,4-d]pyrimidin-4-one], under setting [2], the inhibition constant Ki is 92 nM.

Turning to `Cc1nn(C(C)c2ccc(C(F)(F)F)cc2)c2nc(C3CCCC3)[nH]c(=O)c12` (centres unmarked) [Example 40, 6-Cyclopentyl-3-methyl-1-{1-[4-(trifluoromethyl)phenyl]ethyl}-1,5-dihydro-4H-pyrazolo[3,4-d]pyrimidin-4-one], the Ki under setting [2] is 197 nM.

As for `Cc1nc2c(c(CO)nn2C(C)c2ccc(C(F)(F)F)cc2)c(=O)[nH]1` (single isomer, unassigned) [Example 26, (R)- or (S)-3-(Hydroxymethyl)-6-methyl-1-{1-[4-(trifluoromethyl)phenyl]ethyl}-1,5-dihydro-4H-pyrazolo[3,4-d]pyrimidin-4-one], the Ki under setting [2] came out at 130 nM and the inhibitory constant (Ki) under setting [1] was 236 nM.

As for `Cc1nn(C(C)c2ccc(C(F)(F)F)cc2)c2nc(C3CCC3)[nH]c(=O)c12` (centres unmarked) [Example 39, 6-Cyclobutyl-3-methyl-1-{1-[4-(trifluoromethyl)phenyl]ethyl}-1,5-dihydro-4H-pyrazolo[3,4-d]pyrimidin-4-one], under setting [2], the Ki was 84 nM.

On to `CCC(CCCc1ccccc1)n1nc(C)c2c(=O)[nH]c(C)nc21` (centres unmarked) [Example 338, 1-(1-ethyl-4-phenylbutyl)-3,6-dimethyl-1,5-dihydro-4H-pyrazolo[3,4-d]pyrimidin-4-one], for which, under setting [2], the inhibition constant (Ki) stood at 73 nM.

For `Cc1nc2c(c(CO)nn2C(C)c2ccc(OC(F)(F)F)c(F)c2)c(=O)[nH]1` (single isomer, unassigned) [Example 10, (R)- or (S)-1-(1-(3-Fluoro-4-(trifluoromethoxy)phenyl)ethyl)-3-(hydroxymethyl)-6-methyl-1H-pyrazolo[3,4-d]pyrimidin-4(5H)-one], the inhibition constant (Ki) under setting [1] came to 50 nM.

For `COc1ccc(Cc2nc3c(c(CF)nn3C(C)c3ccc(C(F)(F)F)cc3)c(=O)[nH]2)cc1OC` (single isomer, unassigned) [Example 222, (R)- or (S)-6-(3,4-Dimethoxybenzyl)-3-(fluoromethyl)-1-(1-(4-(trifluoromethyl)phenyl)ethyl)-1,5-dihydro-4H-pyrazolo[3,4-d]pyrimidin-4-one], the Ki runs as follows: under setting [2], under 5.1 nM; under setting [1], 0.34 nM.

As for `Cc1nn(C(C)c2ccc(C(F)(F)F)cc2)c2nc(Cc3cccc(O)c3)[nH]c(=O)c12` (centres unmarked) [Example 30, 6-(3-Hydroxybenzyl)-3-methyl-1-(1-(4-(trifluoromethyl)phenyl)ethyl)-1H-pyrazolo[3,4-d]pyrimidin-4(5H)-one], the inhibitory constant (Ki) by setting is: under setting [2], 4.6 nM; under setting [1], 12 nM.

`Cc1nn(C(C)c2ccc(C(F)(F)F)cc2)c2nc(C3CC3)[nH]c(=O)c12` (centres unmarked) [Example 42, 6-Cyclopropyl-3-methyl-1-{1-[4-(trifluoromethyl)phenyl]ethyl}-1,5-dihydro-4H-pyrazolo[3,4-d]pyrimidin-4-one]: the inhibitory constant (Ki) under setting [2] turned out to be 40 nM.

For the compound `COc1cccc(Cc2nc3c(c(C)nn3C(C)c3ccc(C(F)(F)F)cc3)c(=O)[nH]2)c1` (centres unmarked) [Example 45, 6-(3-Methoxybenzyl)-3-methyl-1-{1-[4-(trifluoromethyl)phenyl]ethyl}-1,5-dihydro-4H-pyrazolo[3,4-d]pyrimidin-4-one], under setting [2], the inhibition constant (Ki) was determined as 22 nM.

As for `Cc1nc2c(c(CF)nn2C(C)c2ccc(C(C)(C)C)cc2)c(=O)[nH]1` (single isomer, unassigned) [Example 214, (R)- or (S)-1-(1-(4-tert-Butylphenyl)ethyl)-3-(fluoromethyl)-6-methyl-1H-pyrazolo[3,4-d]pyrimidin-4(5H)-one], under setting [1], the Ki came out at 307 nM.

Consider `Cc1nc2c(c(CO)nn2C(C)c2ccc(OC(F)(F)F)cc2)c(=O)[nH]1` (centres unmarked) [Example 4], for which the Ki runs as follows: under setting [2], 4.6 nM; under setting [1], 5.9 nM.

Turning to `CCOCCc1nc2c(c(C)nn2C(C)c2ccc(C(F)(F)F)cc2)c(=O)[nH]1` (centres unmarked) [Example 35, 6-(2-Ethoxyethyl)-3-methyl-1-(1-(4-(trifluoromethyl)phenyl)ethyl)-1H-pyrazolo[3,4-d]pyrimidin-4(5H)-one], under setting [2], the Ki was 105 nM.

As to `Cc1nc2c(c(CO)nn2C(c2ccc(C(F)(F)F)cc2)C2CC2)c(=O)[nH]1` (centres unmarked) [Example 28, 1-(Cyclopropyl(4-(trifluoromethyl)phenyl)methyl)-3-(hydroxymethyl)-6-methyl-1H-pyrazolo[3,4-d]pyrimidin-4(5H)-one], under setting [1], the inhibition constant Ki was 1.6 nM.

On to `Cc1nc2c(c(CF)nn2C2(c3ccc(C(F)(F)F)cc3)CCC2)c(=O)[nH]1` [Example 202, 3-(Fluoromethyl)-6-methyl-1-(1-(4-(trifluoromethyl)phenyl)cyclobutyl)-1H-pyrazolo[3,4-d]pyrimidin-4(5H)-one], for which, under setting [1], the Ki worked out at 2.9 nM.

As for `Cc1ccc(C(C)n2nc(CO)c3c(=O)[nH]c(C)nc32)cc1` (centres unmarked) [Example 2, 3-(Hydroxymethyl)-6-methyl-1-(1-p-tolylethyl)-1H-pyrazolo[3,4-d]pyrimidin-4(5H)-one], the Ki is, setting by setting: under setting [2], 18 nM; under setting [1], 28 nM.

As to `COc1ccc(Cc2nc3c(c(C)nn3C(C)c3ccc(C(F)(F)F)cc3)c(=O)[nH]2)cc1OC` (centres unmarked) [Example 44, 6-(3,4-Dimethoxybenzyl)-3-methyl-1-{1-[4-(trifluoromethyl)phenyl]ethyl}-1,5-dihydro-4H-pyrazolo[3,4-d]pyrimidin-4-one], the inhibition constant (Ki) under setting [2] stood at 2.1 nM.

Take `Cc1nc2c(c(CF)nn2C(C)c2ccc(C(C)(C)C)cc2)c(=O)[nH]1` (single isomer, unassigned) [Example 215, (S)- or (R)-1-(1-(4-tert-Butylphenyl)ethyl)-3-(fluoromethyl)-6-methyl-1H-pyrazolo[3,4-d]pyrimidin-4(5H)-one]: the inhibition constant Ki under setting [1] was 0.48 nM.

In the case of `COc1ccc(Cc2nc3c(c(C(F)F)nn3C(C)c3ccc(C(F)(F)F)cc3)c(=O)[nH]2)cc1OC` (single isomer, unassigned) [Example 196], under setting [1], the Ki is 61 nM.

`COc1cccc(-c2nc3c(c(C)nn3C(C)c3ccc(C(F)(F)F)cc3)c(=O)[nH]2)c1` (centres unmarked) [Example 47, 6-(3-Methoxyphenyl)-3-methyl-1-{1-[4-(trifluoromethyl)phenyl]ethyl}-1,5-dihydro-4H-pyrazolo[3,4-d]pyrimidin-4-one]: the inhibition constant (Ki) under setting [2] was determined as 17 nM.

For the compound `Cc1nc2c(c(C(C)(C)O)nn2C(C)c2ccc(C(F)(F)F)cc2)c(=O)[nH]1` (centres unmarked) [Example 326, 3-(1-Hydroxy-1-methylethyl)-6-methyl-1-{1-[4-(trifluoromethyl)phenyl]ethyl}-1,5-dihydro-4H-pyrazolo[3,4-d]pyrimidin-4-one], under setting [2], the Ki turned out to be 70 nM.
